The source of these data is US20090239841A1, “Diaryl Ureas as CB1 Antagonists” (priority 2004, published 2009).

Each structure is given as a SMILES string.

T1 sequence (P21554 whole entry): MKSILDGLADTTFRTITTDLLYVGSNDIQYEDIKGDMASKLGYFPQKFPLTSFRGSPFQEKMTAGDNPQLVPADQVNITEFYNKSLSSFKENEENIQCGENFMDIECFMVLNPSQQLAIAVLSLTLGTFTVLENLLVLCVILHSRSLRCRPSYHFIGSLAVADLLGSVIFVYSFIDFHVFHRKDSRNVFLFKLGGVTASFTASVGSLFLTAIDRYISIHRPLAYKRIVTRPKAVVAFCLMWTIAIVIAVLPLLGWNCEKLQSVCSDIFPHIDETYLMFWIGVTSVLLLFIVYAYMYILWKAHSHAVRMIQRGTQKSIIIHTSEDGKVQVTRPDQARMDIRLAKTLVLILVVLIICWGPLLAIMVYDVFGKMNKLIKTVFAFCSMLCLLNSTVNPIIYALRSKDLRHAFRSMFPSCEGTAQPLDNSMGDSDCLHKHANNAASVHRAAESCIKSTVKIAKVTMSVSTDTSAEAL

One test has as its target T1, hCB1 (Homo sapiens, UniProt P21554).
T1 construct: made in house; host or cells: Sf9 insect cells (baculovirus), P2 membranes
In words: Agonist-induced GTP binding (GTPγ35S) assay at CB1, Example 8. It is filed as biochemical. The conditions noted are these: IC50 at CB1, determined as described in Example 8; read-out: IC50. An excerpt:
As noted above, compounds provided herein are CB1 antagonists. Certain such compounds are non-competitive CB1 antagonists. In addition, or alternatively, certain compounds provided herein display CB1 specificity. CB1 antagonist activity may be confirmed using an agonist-induced GTP binding assay, such as the assay described in Example 8. Such assays employ a CB1-containing cell membrane preparation (e.g., a preparation of membranes of insect cells that recombinantly express CB1) to determine the effect of a test compound on CB1 agonist-induced GTP binding to CB1. Briefly, a first cell membrane preparation comprising CB1 is contacted with: (i) labeled GTP; (ii) a CB1 agonist; and (iii) a test compound to yield a test membrane preparation. Simultaneously, or in either order, a second cell membrane preparation comprising CB1 is contacted with: (i) labeled GTP; and (ii) a CB1 agonist to yield a control membrane preparation. The labeled GTP is preferably GTPγ^35S; a representative CB1 agonist is CP55,940. Such contact is performed under conditions that are suitable for GTP binding to CB1, such as the conditions described in Example 8. The concentrations of labeled GTP and CB1 agonist used are generally concentrations that are sufficient to result in a detectable increase in the amount of labeled GTP bound to the membrane preparation in the presence of CB1 agonist. Such concentrations may be determined by routine experimentation; representative suitable concentrations are provided in Example 8. Generally, a range of test compound concentrations is used (e.g., ranging from 10^−10M to 10^−5M).
After sufficient contact (e.g., incubation) to allow GTP binding to the membrane preparations, a signal that corresponds to (represents) the amount of bound, labeled GTP is detected (typically, unbound labeled GTP is first removed via a washing step). In other words, simultaneously or in either order: (i) a test signal that represents an amount of bound, labeled GTP in the test membrane preparation is detected; and (ii) a control signal that represents an amount of bound, labeled GTP in the control membrane preparation is detected. The nature of the signal detected is determined by the type of label used. For example, if the GTP is radioactively labeled, the signal detected is radioactive decay (e.g., via liquid scintillation spectrometry). The CB1 antagonist activity of the test compound is then determined by comparing the test signal with the control signal.
This assay can also be used to detect partial agonism mediated by antagonist compounds. A compound being analyzed in this assay is referred to herein as a “test compound.” Agonist-stimulated GTP binding activity is measured as follows: Four independent baculoviral stocks (one directing the expression of hCB1 and three directing the expression of each of the three subunits of a heterotrimeric G-protein) are used to infect a culture of Sf9 cells as described in Example 5.
Agonist-stimulated GTP binding on purified membranes (as described in Example 6) is initially assessed using the cannabinoid agonist CP55,940 to ascertain that the receptor/G-protein-alpha-beta-gamma combination(s) yield a functional response as measured by GTP binding.
P2 membranes are resuspended by Dounce homogenization (tight pestle) in GTP binding assay buffer (50 mM Tris pH 7.4, 120 mM NaCl, 5 mM MgCl2, 2 mM EGTA, 0.1% BSA, 0.1 mM bacitracin, 10 KIU/mL aprotinin, 5 μM GDP) and added to reaction tubes at a concentration of 10 μg protein/reaction tube. After adding increasing doses of the agonist CP55,940 at concentrations ranging from 10^−12 M to 10^−6 M, reactions are initiated by the addition of […] GTPγ^35S. In competition experiments, non-radiolabeled test compounds are added to separate assays at concentrations ranging from 10^−10 M to 10^−5 M along with 1 nM CP55,940 to yield a final volume of 0.25 mL. […]
For the compound `CCOC(=O)c1ccc(NC(=O)Nc2ccc(F)c(C)c2)cc1` [Compound 738, ethyl 4-({[(4-fluoro-3-methylphenyl)amino]carbonyl}amino)benzoate], the IC50 (in general, the concentration that inhibits the measured activity by half) was under 2000 nM.

With `CCOc1ccc(NC(=O)Nc2ccc(F)c(F)c2)cc1` [Compound 619, 1-(3,4-difluorophenyl)-3-(4-ethoxyphenyl)urea], the IC50 is under 2000 nM.

For the compound `COC(=O)c1ccc(NC(=O)Nc2ccc(C(C)=O)cc2)cc1` [Compound 510, methyl 4-({[(4-acetylphenyl)amino]carbonyl}amino)benzoate], the IC50 was under 2000 nM.

For `CC(=O)c1ccc(NC(=O)Nc2ccc(C(C)C)cc2)cc1` [Compound 348, 1-(4-acetylphenyl)-3-(4-isopropylphenyl)urea], the IC50 is under 2000 nM.

For `COc1cccc(NC(=O)Nc2ccc(OC(C)C)cc2)c1` [Compound 551, 1-(4-isopropoxyphenyl)-3-(3-methoxyphenyl)urea], the IC50 was under 2000 nM.

For the compound `COc1ccc(NC(=O)Nc2cccc(OC(F)F)c2)cc1` [Compound 554, 1-[3-(difluoromethoxy)phenyl]-3-(4-methoxyphenyl)urea], the IC50 is under 2000 nM.

Turning to `CCc1ccc(NC(=O)Nc2cccc(COC)c2)cc1` [Compound 391, 1-(4-ethylphenyl)-3-[3-(methoxymethyl)phenyl]urea], the IC50 is under 2000 nM.

Regarding `COc1ccc(NC(=O)Nc2cccc(C#N)c2)cc1` [Compound 409, 1-(3-cyanophenyl)-3-(4-methoxyphenyl)urea], the IC50 was under 2000 nM.

As for `CCOC(=O)c1cccc(NC(=O)Nc2ccc(CC)cc2)c1` [Compound 646, ethyl 3-({[(4-ethylphenyl)amino]carbonyl}amino)benzoate], the IC50 was under 2000 nM.

As to `CCC(=O)c1ccc(NC(=O)Nc2ccc(C)cc2)cc1` [Compound 469, 1-(4-methylphenyl)-3-(4-propionylphenyl)urea], the IC50 was under 2000 nM.

On to `Cc1ccc(NC(=O)Nc2cccc(OC(F)F)c2)c(C)c1` [Compound 711, 1-[3-(difluoromethoxy)phenyl]-3-(2,4-dimethylphenyl)urea], for which the half-inhibitory concentration (IC50) is under 2000 nM.

On to `Cc1ccc(NC(=O)Nc2ccc(Cl)nc2)cc1F` [Compound 781, 1-(6-chloropyridin-3-yl)-3-(3-fluoro-4-methylphenyl)urea], for which the IC50 is under 2000 nM.

For the compound `CCOC(=O)c1cccc(NC(=O)Nc2cccc(OCCO)c2)c1` [Compound 756, ethyl 3-[({[3-(2-hydroxyethoxy)phenyl]amino}carbonyl)amino] benzoate], the IC50 is under 2000 nM.

Consider `Cc1ccc(NC(=O)Nc2ccc(OCC#N)cc2)cc1C` [Compound 729, 1-[4-(cyanomethoxy)phenyl]-3-(3,4-dimethylphenyl)urea], for which the IC50 is under 2000 nM.

With `CCCc1ccc(NC(=O)Nc2ccc(C)cc2)cc1` [Compound 293, N-(4-methylphenyl)-N′-(4-propylphenyl)urea], the IC50 was under 2000 nM.

Take `CC(C)Oc1cccc(NC(=O)Nc2ccc(OC(F)(F)F)cc2)c1` [Compound 536, 1-(3-isopropoxyphenyl)-3-[4-(trifluoromethoxy)phenyl]urea]: the IC50 was under 2000 nM.

Consider `COc1ccc(NC(=O)Nc2ccc3c(c2)CCC3)cc1` [Compound 620, 1-(2,3-dihydro-1H-inden-5-yl)-3-(4-methoxyphenyl)urea], for which the IC50 is under 2000 nM.

In the case of `O=C(Nc1ccc(OC(F)(F)F)cc1)Nc1ccc2c(c1)CCC2` [Compound 610, 1-(2,3-dihydro-1H-inden-5-yl)-3-[4-(trifluoromethoxy)phenyl]urea], the IC50 is under 2000 nM.

Turning to `O=C(Nc1ccc(OC(F)F)cc1)Nc1cnccn1` [Compound 627, 1-[4-(difluoromethoxy)phenyl]-3-pyrazin-2-ylurea], the IC50 is under 2000 nM.

Consider `CC(=O)c1cccc(NC(=O)Nc2ccc3c(c2)CCC3)c1` [Compound 455, 1-(3-acetylphenyl)-3-(2,3-dihydro-1H-inden-5-yl)urea], for which the IC50 is under 2000 nM.

Turning to `O=C(Nc1ccc(OC(F)F)cc1)Nc1ccccc1Br` [Compound 605, 1-(2-bromophenyl)-3-[4-(difluoromethoxy)phenyl]urea], the IC50 was under 2000 nM.

As for `CCc1ccc(NC(=O)Nc2ccccc2[N+](=O)[O-])cc1` [Compound 515, 1-(4-ethylphenyl)-3-(2-nitrophenyl)urea], the IC50 was under 2000 nM.

As for `CCCc1ccc(NC(=O)Nc2cccc(C#N)c2)cc1` [Compound 350, 1-(3-cyanophenyl)-3-(4-propylphenyl)urea], the IC50 was under 2000 nM.

In the case of `O=C(Nc1ccc(OC(F)F)cc1)Nc1ccccn1` [Compound 631, 1-[4-(difluoromethoxy)phenyl]-3-pyridin-2-ylurea], the IC50 is under 2000 nM.

As for `CCOc1ccc(NC(=O)Nc2cccc(C(=O)OC)c2)cc1` [Compound 663, methyl 3-({[(4-ethoxyphenyl)amino]carbonyl}amino)benzoate], the IC50 was under 2000 nM.

In the case of `Cc1ccc(NC(=O)Nc2ccc(Cl)cc2)cc1` [Compound 314, N-(4-chlorophenyl)-N′-(4-methylphenyl)urea], the IC50 was under 2000 nM.

For `CCc1ccc(NC(=O)Nc2ccccn2)cc1` [Compound 638, 1-(4-ethylphenyl)-3-pyridin-2-ylurea], the IC50 was under 2000 nM.

In the case of `COC(=O)c1ccc(NC(=O)Nc2ccc(C(=O)OC(C)C)cc2)cc1` [Compound 724, isopropyl methyl 4,4′-(carbonyldiimino)dibenzoate], the IC50 is under 2000 nM.

Still in this test, the particulars now being: Table I; IC50 at CB1, GTP binding with 1 nM CP55,940; read-out: IC50.
With `CCc1ccc(NC(=O)Nc2ccc(C(C)=O)cc2)cc1` [Compound 22, N-(4-acetylphenyl)-N′-(4-ethylphenyl)urea], the IC50 was under 2000 nM.

Regarding `CCc1ccc(NC(=O)Nc2ccc(OC(F)F)c(OC)c2)cc1` [Compound 53, N-[4-(difluoromethoxy)-3-methoxyphenyl]-N′-(4-ethylphenyl)urea], the IC50 was under 2000 nM.

Still in this test, the particulars now being: Table II; IC50 at CB1, GTP binding with 1 nM CP55,940; read-out: IC50.
In the case of `CC(=O)c1cccc(NC(=O)Nc2cccc(OC(F)F)c2)c1` [Compound 285, N-(3-acetylphenyl)-N′-[3-(difluoromethoxy)phenyl]urea], the IC50 is under 2000 nM.

On to `O=C(Nc1ccccc1)Nc1ccc2c(c1)CCC2` [Compound 161, N-(2,3-dihydro-1H-inden-5-yl)-N′-phenylurea], for which the IC50 is under 2000 nM.

Turning to `CCc1ccc(NC(=O)Nc2ccc(F)cc2)cc1` [Compound 175, N-(4-ethylphenyl)-N′-(4-fluorophenyl)urea], the IC50 is under 2000 nM.

For the compound `CCOc1ccc(NC(=O)Nc2cccc(C(C)=O)c2)cc1` [Compound 266, N-(3-acetylphenyl)-N′-(4-ethoxyphenyl)urea], the IC50 is under 2000 nM.

For the compound `CCc1cccc(NC(=O)Nc2ccc(C)cc2)c1` [Compound 174, N-(3-ethylphenyl)-N′-(4-methylphenyl)urea], the IC50 was under 2000 nM.

Take `CC(=O)c1ccc(NC(=O)Nc2ccc(C)cc2)cc1` [Compound 187, N-(4-acetylphenyl)-N′-(4-methylphenyl)urea]: the IC50 was under 2000 nM.

Regarding `O=C(Nc1ccc(OC(F)F)cc1)Nc1cc(-c2ccccc2)n[nH]1` [Compound 107, N-[4-(difluoromethoxy)phenyl]-N′-(3-phenyl-1H-pyrazol-5-yl)urea], the IC50 is under 2000 nM.

As for `CCOc1ccc(NC(=O)Nc2ccc(Cl)cc2)cc1` [Compound 237, N-(4-chlorophenyl)-N′-(4-ethoxyphenyl)urea], the IC50 was under 2000 nM.

For `CC(=O)c1ccc(NC(=O)Nc2cccc(Br)c2)cc1` [Compound 201, N-(4-acetylpheny-)-N′-(3-bromophenyl)urea], the IC50 is under 2000 nM.
